According to patent US20160082105A1, “Antibody Buffering of a Ligand in Vivo” (ARROWSMITH TECHNOLOGIES CORPORATION, priority 2004, published 2016):
Like-named read-outs stand apart in the source and are kept apart here.

Columns and labels:
[1] = Text: Male Sprague-Dawley rats (300 g) were obtained from Zivic Laboratories, Inc. (Zelienople, Pa.). Each rat underwent surgery to place a cannula in the right lateral ventricle for injections and a second cannula in the cisterna magna for cerebral spinal fluid (CSF) sampling. Briefly, the rat was anesthetized with 2.5% isoflurane and fixed in a stereotaxic device. Normal body temperature was maintained through a heating pad. A linear midline incision exposed the frontal, parietal, and occipital bones. The lateral ventricle was located using the coordinates (1.8 mm posterior, 3.8 mm lateral, and 4 mm ventral from bregma) obtained from a stereotaxic atlas of the rat (Paxinos et al. The Rat Brain in Stereotaxic Coordinates (Academic Press 1998)). A hole was drilled through the skull, a cannula was inserted, and it was fixed to the skull using VetBond (3M, Minneapolis, Minn.) and dental cement. […] The cannula was inserted to a depth of 2 mm below the bottom of the skull and fixed with VetBond and dental cement. Screw-capped cannula dummy wires were inserted into the cannula guides to maintain a closed system. Rats were allowed to recover for at least 24 hours before ventricular injection.
For experiments for which injections and withdrawals of CSF were done via the same site in the cisterna magna (CM), male Sprague-Dawley rats (250 g) were obtained from Charles River Laboratories (Wilmington, Mass.). […] Rats were allowed to rest no more than three days after arrival prior to experimentation to reduce the risk of cannula blockage.
Samples were prepared for injection: 104 pmol anti-Ox antibody and 52 pmol Ox; 104 pmol of D1.3 control antibody and 52 pmol Ox; and 52 pmol Ox alone. Each sample was diluted to 10 μl with sterile PBS. The samples were warmed to 37° C., and then infused over 1 minute through the intraventricular or cisternal cannula in Sprague-Dawley rats. The end of the infusion was designated as time zero (0). At various timepoints, 10 μl of CSF was withdrawn. For one set of rats, the 10 μl CSF was counted directly by placing it into 5 ml of Scintiverse II and counting in a Beckman LS6500 Scintillation Counter. For another set of rats, the 10 μl CSF was diluted into 100 μl ice cold PBS and used in bound vs. free Ox experiments described below.
Samples of NQ11/7.12 and Ox were prepared and infused into the cisternal cannula of Sprague-Dawley rats from Charles River Laboratories as described above for the antibody buffering protocol. Ten μl of CSF was taken from the cisterna magna at time 1, 10, 20, 30, 60, 90 and 120 minutes. The 10 μl CSF samples were either counted directly or diluted into 100 μl ice cold PBS and loaded onto a 187.1 column to separate bound and free Ox. At 24 hours and at 48 hours following the first administration, 52 pmol Ox in 10 μl total volume (diluted with sterile PBS) was infused over 1 minute through the cisterna magna cannula. Timepoints were again taken and analyzed as above.
To determine the pharmacokinetic behavior of Ox in the CSF, tritiated Ox was infused into a rat through its intraventricular cannula, and elimination of Ox was followed through CSF sampling from the cisterna magna (CM) cannula. Sampling was done from the cisterna magna because it is the largest CSF compartment. Its location between the cerebellum and the upper brain stem and its large size make it relatively easy to access CSF for sampling and scintillation counting (van den Berg et al., J. Neurosci. Methods 116:99-107 (2002)).

[2] = remark: listed apart in the source
Method: Samples were prepared for injection: 4.54 nmol anti-Ox antibody and 2.27 nmol Ox; 4.54 nmol D1.3 control antibody and 2.27 nmol Ox; or no antibody and 2.27 nmol Ox. Each sample was diluted to 1 ml with sterile PBS. The samples were warmed to 37° C., and then infused over 1 minute through the jugular vein cannula in Sprague-Dawley rats as described above. At various timepoints, 0.45 ml of blood was withdrawn and immediately centrifuged to separate out the plasma. 100 μl of plasma were counted directly by placing the plasma into 5 ml of Scintiverse II and counting in a Beckman LS6500 Scintillation Counter. 100 μl plasma was used in bound vs. free Ox experiments described below. For some rats, 0.1 ml of blood minus plasma was analyzed. These samples were first decolorized by incubating at 40° C. in 0.3 ml of Scintigest (Fisher Scientific):isopropanol (1:2 v/v) for one hour. Then 0.2 ml of 30% H2O2 was added dropwise, and the solution was incubated at room temperature for 15 minutes. Pipetting up and down was needed to break up some clumps. The solution was incubated at 40° C. before placing it into 5 ml of Scintiverse II. The samples were allowed to sit overnight before counting to reduce chemiluminescence. Control samples were prepared using known amounts of Ox to aid in analysis.
The rat anti-mouse kappa antibody 187.1 (see Example 1) was isolated from spent culture medium and purified by passage over a Protein A-Sepharose affinity column. Ten g of CNBr-activated Sepharose 4 Fast Flow (Amersham Biosciences) were washed and coupled with 187.1 according to manufacturer's protocol. Two mg 187.1 per 10 g of swelled resin were used.
During the antibody buffering experiments, 100 μl of plasma was loaded onto the 187.1 column immediately after centrifugation. Three ml of PBS followed by three ml of 0.2 M glycine (pH 2.5) were then applied onto the column as described in Example 1. All PBS fractions and all glycine fractions were collected separately for each timepoint and dried down in the SpeedVac. The residue was resuspended in 150 μl PBS and then transferred to a scintillation vial with 5 ml Scintiverse II for counting.
Samples of NQ11/7.12 and Ox were prepared and infused into Sprague-Dawley rats as described above. Blood samples (0.4 ml) were taken at time 1, 10, 20, 50, 90, and 120 minutes. 100 μl plasma were counted directly and 100 μl were placed on a 187.1 column to separate bound and free Ox. At 24 hours and again at 48 hours following the first administration, 2.27 nmol Ox in 0.5 ml PBS was infused over 1 minute through the jugular cannula. Timepoints were again taken and analyzed as above.
Bound and free forms of Ox in plasma fractions from the animals were separated on an affinity column. […] An immobilized rat anti-mouse kappa antibody was used to trap antibody-Ox complexes while free Ox eluted from the column with a PBS wash (free Ox fraction).

[3] = Ox administered alone or with D1.3

## O=C(O)CCCNC=C1N=C(c2ccccc2)OC1=O [Ox, 2-phenyl-oxazol-5-one-γ-amino butyrate]
[1]; Ox alone (no NQ11/7.12), intraventricular infusion, cisternal CSF sampling
  Ox elimination half-life from the cisterna magna: 1.2 min
[1]; Ox alone re-administered at 24 hours and 48 hours after a single NQ11/7.12 + Ox cisternal infusion
  total Ox pharmacokinetic lifetime in CSF, long term buffering: kinetic profile between the profile observed when Ox was initially administered with NQ11/7.12 and the profile of Ox when administered with D1.3
[1]; Ox co-administered with control antibody D1.3, cisternal infusion
  Ox elimination half-life from CSF: 1.0 min
[1]; Ox co-administered with twice the molar amount of NQ11/7.12, cisternal infusion
  Ox elimination half-life from CSF: 10 min
[1]; Ox with twice the molar amount of NQ11/7.12, intraventricular infusion
  time of peak Ox concentration in the cisterna magna: around 5 minutes
[1]; Ox without antibody buffer, intraventricular infusion
  peak Ox concentration in the cisterna magna: never attained a peak concentration
[1]; cisternal infusion
  increase in Ox half-life in CSF, NQ11/7.12 vs D1.3: ten-fold
[2]; [3]
  free Ox elimination half-life in plasma: 6.0 ± 1 min
  initial free Ox concentration in plasma: 6.8 nM
[2]; Ox administered with NQ11/7.12
  free Ox concentration in plasma after an hour: 0.8 nM
  free Ox elimination half-life in plasma: 41 ± 6 min
  initial free Ox concentration in plasma: 2.2 nM
[2]; Ox administered with NQ16/113.8 or NQ22/16.4
  decline of free Ox concentration in plasma compared with NQ11/7.12: declined much more rapidly
[2]; Ox alone re-administered at 24 hours and 48 hours after a single NQ11/7.12 + Ox infusion
  free Ox concentration in plasma, long term buffering: quickly normalized
[2]; Ox without anti-Ox antibody
  fraction of unbuffered Ox eliminated from plasma before the first timepoint: more than half
